Test results from patent US10760052B2, “Method of inhibiting tau phosphorylation” (priority 2012, dated 2020).

Target: T1, mu opiate receptor (MOR) (Rattus norvegicus, UniProt P33535)
T1 construct: from tissue; host or cells: striatum (membrane preparation)
Type: biochemical
Conditions: for Concentration of FLNA-Binding Compound as Agonist 0.1 μM / Concentration of FLNA-Binding Compound as Agonist 1 μM / Concentration of FLNA-Binding Compound as Agonist 1 μM + BFNA: [35S]GTPγS binding to Gαo in striatal membranes; for Concentration of FLNA-Binding Compound as Agonist 0.1 μM: compound 0.1 μM; for Concentration of FLNA-Binding Compound as Agonist 1 μM: compound 1 μM; for Concentration of FLNA-Binding Compound as Agonist 1 μM + BFNA: compound 1 μM plus 1 μM β-funaltrexamine (MOR antagonist)
Description: To assess the mu opiate receptor (MOR) agonist activity of positive compounds from the FLNA screening, compounds were tested in a [^35S]GTPγS binding assay using striatal membranes. […] This assay measures a functional consequence of receptor occupancy at one of the earliest receptor-mediated events. The assay permits for traditional pharmacological parameters of potency, efficacy and antagonist affinity, with the advantage that agonist measures are not subjected to amplification or other modulation that may occur when analyzing parameters further downstream of the receptor.
Thus, striatal tissue was homogenized in 10 volumes of ice cold 25 mM HEPES buffer, pH 7.4, which contained 1 mM EGTA, 100 mM sucrose, 50 μg/ml leupeptin, 0.04 mM PMSF, 2 μg/ml soybean trypsin inhibitor and 0.2% 2-mercaptoethanol. The homogenates were centrifuged at 800×g for 5 minutes and the supernatants were centrifuged at 49,000×g for 20 minutes.
The resultant striatal membrane preparation (200 μg) was admixed and maintained (incubated) at 30° C. for 5 minutes in reaction buffer as above that additionally contained 1 mM MgCl2 and 0.5 nM [^35S]GTPγS (0.1 μCi/assay, PerkinElmer Life and Analytical Sciences) in a total volume of 250 μl and continued for 5 minutes in the absence or presence of 0.1-10 μM of an assayed compound of interest. The reaction was terminated by dilution with 750 μl of ice-cold reaction buffer that contained 20 mM MgCl2 and 1 mM EGTA and immediate centrifugation at 16,000×g for 5 minutes.
Normal rabbit serum (1 μl) was added to 1 ml of lysate and incubated at 25° C. for 30 minutes. Nonspecific immune complexes were removed by incubation with 25 μl of protein A/G-conjugated agarose beads at 25° C. for 30 minutes followed by centrifugation at 5,000×g at 4° C. for 5 minutes. The supernatant was divided and separately incubated at 25° C. for 30 minutes with antibodies raised against Gαo proteins (1:1,000 dilutions).
The immunocomplexes so formed were collected by incubation at 25° C. for 30 minutes with 40 μl of agarose-conjugated protein A/G beads and centrifugation at 5,000×g at 4° C. for 5 minutes. The pellet was washed and suspended in buffer containing 50 mM Tris-HCl, pH 8.0, and 1% NP-40. The radioactivity in the suspension was determined by liquid scintillation spectrometry.

T1 sequence (P33535 whole entry): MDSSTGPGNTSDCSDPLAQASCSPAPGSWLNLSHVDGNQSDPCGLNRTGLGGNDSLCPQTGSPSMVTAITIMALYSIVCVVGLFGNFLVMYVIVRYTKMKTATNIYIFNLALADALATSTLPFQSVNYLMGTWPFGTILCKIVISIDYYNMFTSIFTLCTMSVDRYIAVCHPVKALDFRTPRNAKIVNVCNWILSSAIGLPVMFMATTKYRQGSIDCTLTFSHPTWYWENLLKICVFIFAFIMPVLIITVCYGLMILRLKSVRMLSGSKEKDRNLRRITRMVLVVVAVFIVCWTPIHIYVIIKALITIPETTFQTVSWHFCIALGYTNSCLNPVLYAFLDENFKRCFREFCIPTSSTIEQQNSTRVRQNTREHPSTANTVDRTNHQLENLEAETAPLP

Compound | % DAMGO (0.1 μM) [%] | % DAMGO (1 μM) [%] | % DAMGO + BFNA [%] | Concentration of FLNA-Binding Compound as Agonist 0.1 μM [%] | Concentration of FLNA-Binding Compound as Agonist 1 μM [%] | Concentration of FLNA-Binding Compound as Agonist 1 μM + BFNA [%]
CC1CCC(C(C)C)C(OCC(O)CN2CC(C)OC(C)C2)C1 (stereo not drawn) [Compound A3333] | 88.9 | 101.0 | 136.7 | 170.7 | 328.3 | 65.9
COc1c2c(cc3c1C(CC(=O)c1ccc(C#N)cc1)[N+](C)(C)CC3)OCO2 (stereo not drawn) [Compound B0001] | 77.4 | 74.9 | 43.1 | 128.2 | 202.3 | 28.0
COc1c2c(cc3c1C(CC(=O)c1ccc(O)c(C)c1)[N+](C)(C)CC3)OCO2 (stereo not drawn) [Compound B0002] | 100.0 | 81.1 | 156.0 | 165.7 | 219.0 | 101.4
COc1c2c(cc3c1C(CC(=O)c1ccc(N4CCOCC4)cc1)[N+](C)(C)CC3)OCO2 (stereo not drawn) [Compound B0004] | 102.8 | 85.8 | 110.8 | 170.3 | 231.7 | 72.0
COc1c2c(cc3c1C(CC(=O)c1ccncc1)[N+](C)(C)CC3)OCO2 (stereo not drawn) [Compound B0005] | 50.5 | 42.6 | 68.6 | 89.2 | 110.4 | 45.1
COc1c2c(cc3c1C(CC(=O)c1cccc(C(F)(F)F)c1)[N+](C)(C)CC3)OCO2 (stereo not drawn) [Compound B0006] | 44.8 | 47.5 | 29.0 | 77.0 | 131.3 | 18.6
COc1cc(F)ccc1C(=O)CC1c2c(cc3c(c2OC)OCO3)CC[N+]1(C)C (stereo not drawn) [Compound B0007] | 95.3 | 86.1 | 98.2 | 168.3 | 223.3 | 64.5
COc1cc(CC(=O)CC2c3c(cc4c(c3OC)OCO4)CC[N+]2(C)C)cc(OC)c1OC (stereo not drawn) [Compound B0008] | 84.0 | 101.9 | 70.0 | 148.3 | 264.1 | 46.0
COc1c2c(cc3c1C(CC(=O)Cc1ccc(Br)cc1)[N+](C)(C)CC3)OCO2 (stereo not drawn) [Compound B0011] | 95.7 | 78.7 | 120.0 | 158.6 | 212.6 | 78.0
COc1c2c(cc3c1C(CC(=O)Cc1ccc(C#N)cc1)[N+](C)(C)CC3)OCO2 (stereo not drawn) [Compound B0012] | 97.8 | 79.4 | 278.5 | 167.4 | 212.0 | 145.1
COc1ccc(CCC(=O)CC2c3c(cc4c(c3OC)OCO4)CC[N+]2(C)C)cc1 (stereo not drawn) [Compound B0016] | 99.2 | 79.9 | 109.4 | 167.7 | 213.6 | 72.2
COc1c2c(cc3c1C(CC(=O)CCc1ccc(Cl)cc1)[N+](C)(C)CC3)OCO2 (stereo not drawn) [Compound B0017] | 58.9 | 45.6 | 75.2 | 99.6 | 122.0 | 49.6
